Source: patent US20090143456A1, “Polyamine Analogs as Modulators of Cell Migration and Cell Motility” (priority 2005, published 2009)

Tested on: Human glioblastoma SNB19 cells
Experiment: LIVE/DEAD reagent staining to assess compound toxicity at end of migration assay
Format: cell-based
Method: The 96 well slides were first coated with 0.1 μg/ml laminin, a motility stimulating substrate, in PBS for 1 hour at 37° C., rinsed three times in PBS, and then treated with 0.1% BSA in PBS for 1 hour at room temperature. Human glioblastoma SNB19 cells were plated at 3,000 cells per sedimentation channel and incubated overnight to allow cell sedimentation and attachment to the substrate. After removal of the manifold, the cells were treated with the compounds either at 0, 0.1 μM, 1 μM or […]. The experiment was done in duplicate with appropriate controls on each slide. After adding the compounds, the diameter of each cell population was initially measured using an inverted microscope and image analysis software (Scion Image Corp, Frederick, Md.). Cells were incubated an additional 72 hours in the presence (or not) of the pharmacological compounds. The diameter of each cell population was again assessed at 24 hours, 48 hours and 72 hours to calculate the overall migration rate. Migration results were reported as the specific radial movement (μm/day) of the cell population. […] At the end of the assay, cells were rinsed with PBS, then treated with LIVE/DEAD reagent staining (Molecular Probes, Eugene, Oreg.) to assess compound toxicity.
FIGS. 1-38 show data for the activity of compounds in the migration assay. […]

SMILES: c1ccc(C2(NCCCCNCC3CC3CNCCCCNC3(c4ccccc4)CC3)CC2)cc1 (centres unmarked) [SL-11255, 1,2-bis((1-phenylcyclopropylaminobutyl)aminomethyl)cyclopropane]
- cytotoxic effects (Live/Dead assay) (10 μM, at time of staining (end of 72 hour assay)): severe cytotoxic effects
- toxicity (Live/Dead assay) (lower concentrations (below 10 μM)): not toxic
